Columns and labels:
Format in all cases: in vivo
Amaranthus = experiment: Post-emergence test; conditions: Amaranthus, 504 h, greenhouse, scored after three weeks, read-out: % damage, Amaranthus
Experimental: (§1) Post-emergence Test Solvent: 5 parts by weight of acetone Emulsifier: 1 part by weight of alkylaryl polyglycol ether To produce a suitable preparation of active compound, 1 part by weight of active compound is mixed with the stated amount of solvent, the stated amount of emulsifier is added and the concentrate is diluted with water to the desired concentration. Test plants which have a height of 5-15 cm are sprayed with the preparation of active compound such that the particular amounts of active compounds desired are applied per unit area. The concentration of the spray liquor is chosen so that the particular amounts of active compound desired are applied in 1000 l of water/ha. After three weeks, the degree of damage to the plants is scored visually in % damage in comparison to the untreated control. The Figures Denote: 0%=no effect (like untreated control) 100%=total destruction

Chenopodium = experiment: Post-emergence test; conditions: Chenopodium, 504 h, greenhouse, scored after three weeks, read-out: % damage, Chenopodium
Experimental: as §1

Polygonum = experiment: Post-emergence test; conditions: Polygonum, 504 h, greenhouse, scored after three weeks, read-out: % damage, Polygonum
Experimental: as §1

Setaria = experiment: Post-emergence test; conditions: Setaria, 504 h, greenhouse, scored after three weeks, read-out: % damage, Setaria
Experimental: as §1

Viola = experiment: Post-emergence test; conditions: 504 h, greenhouse, scored after three weeks, read-out: % damage, Viola
Experimental: as §1

Wheat = experiment: Post-emergence test; conditions: Triticum aestivum, 504 h, greenhouse, scored after three weeks, read-out: % damage, Wheat
Experimental: as §1

weeds = experiment: Post-emergence test (summary in text); conditions: result in words
Experimental: Solvent: 5 parts by weight of acetone
Emulsifier: 1 part by weight of alkylaryl polyglycol ether
To produce a suitable preparation of active compound, 1 part by weight of active compound is mixed with the stated amount of solvent, the stated amount of emulsifier is added and the concentrate is diluted with water to the desired concentration.
Test plants which have a height of 5-15 cm are sprayed with the preparation of active compound such that the particular amounts of active compounds desired are applied per unit area. The concentration of the spray liquor is chosen so that the particular amounts of active compound desired are applied in 1000 l of water/ha.
After three weeks, the degree of damage to the plants is scored visually in % damage in comparison to the untreated control.
0%=no effect (like untreated control)

SMILES | activity against weeds (weeds) | also measured
CC(Nc1nc(N)nc(C(F)(F)C(F)(F)F)n1)c1ccc(Cl)cc1 (stereo not shown) |  | pest or weed control at 250 g/ha (Amaranthus; 250 g of ai./ha): 100%; pest or weed control at 250 g/ha (Chenopodium; 250 g of ai./ha): 100%; pest or weed control at 250 g/ha (Polygonum; 250 g of ai./ha): 100%; pest or weed control at 250 g/ha (Setaria; 250 g of ai./ha): 100%; pest or weed control at 250 g/ha (Viola; 250 g of ai./ha): 100%; plant injury at 250 g/ha (Wheat; 250 g of ai./ha): 10%
CC(=O)Nc1nc(NC(C)c2ccc(Cl)cc2)nc(C(F)(F)F)n1 (stereo not shown) |  | pest or weed control at 500 g/ha (Amaranthus; 500 g of ai./ha): 100%; pest or weed control at 500 g/ha (Chenopodium; 500 g of ai./ha): 100%; pest or weed control at 500 g/ha (Polygonum; 500 g of ai./ha): 100%; pest or weed control at 500 g/ha (Setaria; 500 g of ai./ha): 95%; pest or weed control at 500 g/ha (Viola; 500 g of ai./ha): 100%; plant injury at 500 g/ha (Wheat; 500 g of ai./ha): 10%
CC(Nc1nc(N)nc(Cl)n1)c1ccc(Cl)cc1 (stereo not shown) [Example 4] | strong activity | 
CC(Nc1nc(N)nc(Cl)n1)c1ccc(Cl)cc1 (stereo not shown) [Example 5] | strong activity | 
CC(Nc1nc(N)nc(Cl)n1)c1ccc(Cl)cc1 (stereo not shown) [Example 8] | strong activity | 
CC(Nc1nc(N)nc(C(F)(F)F)n1)c1ccc(Cl)cc1 (stereo not shown) [Example 15] | strong activity | 
CC(Nc1nc(N)nc(C(F)(F)F)n1)c1ccc(Cl)cc1 (stereo not shown) [Example 21] | strong activity | 
COc1ccc(C(C)Nc2nc(N)nc(C(F)(F)F)n2)cc1 (stereo not shown) [Example 79] | strong activity | 
CCC(Nc1nc(N)nc(C(F)(F)F)n1)c1ccc(Cl)cc1 (stereo not shown) [Example 86] | strong activity | 
CCC(Nc1nc(N)nc(C(F)(F)F)n1)c1ccc(Cl)cc1 (stereo not shown) [Example 87] | strong activity | 
CCc1nc(N)nc(NC(C)c2ccc(Cl)cc2)n1 (stereo not shown) [Example 91] | strong activity | 
CC(Nc1nc(N)nc(C(Cl)Cl)n1)c1ccc(Cl)cc1 (stereo not shown) [Example 94] | strong activity | 
CC(Cl)c1nc(N)nc(NC(C)c2ccc(Cl)cc2)n1 (stereo not shown) [Example 96] | strong activity | 
CC(Nc1nc(N)nc(C(C)(Cl)Cl)n1)c1ccc(Cl)cc1 (stereo not shown) [Example 97] | strong activity | 
CCc1nc(N)nc(NC(C)c2ccc(Cl)cc2)n1 (stereo not shown) [Example 153] | strong activity | 
CCc1nc(N)nc(NC(C)c2ccc(Cl)cc2)n1 (stereo not shown) [Example 166] | strong activity | 
COCc1nc(N)nc(NC(C)c2ccc(Cl)cc2)n1 (stereo not shown) [Example 170] | strong activity | 
CC(Cl)c1nc(N)nc(NC(C)c2ccc(Cl)cc2)n1 (stereo not shown) [Example 171] | strong activity | 
